Measurements as given in patent US8084456B2, “Pyrazine-based tubulin inhibitors” (YM Biosciences Australia Pty Ltd, priority 2002, dated 2011).
pIC50: −log10 of the molar value.

Columns and labels:
TelJak3 = TelJak3 (Homo sapiens, UniProt P52333); assay: Cellular growth assay (MTT), BaF3 TEL/JAK3 cells; assay type: cell-based; details: 40 hr incubation, read-out: TelJak3 (inhibition of 50% of cellular growth)
[1] = test system: PC3 (Prostate Cancer) cells; assay: Cellular growth assay (MTT), PC3; assay type: cell-based; details: Homo sapiens, PC-3, 40 hr incubation, read-out: PC3 (inhibition of 50% of cellular growth)
Description: (§1) K562 (Chronic Myeloid Leukemia), PC3 (Prostate Cancer), and DU145 (Prostate Cancer) were obtained from the American Type Culture Collection (ATCC). K562 was grown in RPMI, with 10% FBS with Glutamx added. DU145 cells were cultured in DMED, with 10% FBS and Glutamx and MEM non-essential amino acids added. PC3 cells were grown in F12K medium, with 10% FBS and Glutamx and MEM non-essential amino acids added. All cells were grown at 37° C. in 5% CO2.

Tubulin = Tubulin assay (turbidometric microtubule assembly); assay type: biochemical; details: at 50 μM, absorbance at 340 nm, 37° C.
Description: Turbidometric assays of microtubule assembly were performed by incubating microtubule protein in cuvettes at 37° C. in a thermostatically controlled spectrophotometer measuring the change in absorbance at 340 nm over time. The microtubule protein was incubated with the each test compound at 0° C. and polymerisation was initiated by addition of 1 mM GTP, prior to heating to 37° C.

[2] = test system: DU145 (Prostate Cancer) cells; assay: Cellular growth assay (MTT), DU145; assay type: cell-based; details: Homo sapiens, DU-145, 40 hr incubation, read-out: DU145 (inhibition of 50% of cellular growth)
Description: as §1

[3] = test system: K562 (Chronic Myeloid Leukemia) cells; assay: Cellular growth assay (MTT), K562; assay type: cell-based; details: Homo sapiens, 40 hr incubation, read-out: K562 (inhibition of 50% of cellular growth)
Description: as §1

TelJak2 = TelJak2 (Homo sapiens, UniProt O60674); assay: Cellular growth assay (MTT), BaF3 TEL/JAK2 cells; assay type: cell-based; details: 40 hr incubation, read-out: TelJak2 (inhibition of 50% of cellular growth)
TelJak2, sequence (O60674 with tags, fused parts or gaps): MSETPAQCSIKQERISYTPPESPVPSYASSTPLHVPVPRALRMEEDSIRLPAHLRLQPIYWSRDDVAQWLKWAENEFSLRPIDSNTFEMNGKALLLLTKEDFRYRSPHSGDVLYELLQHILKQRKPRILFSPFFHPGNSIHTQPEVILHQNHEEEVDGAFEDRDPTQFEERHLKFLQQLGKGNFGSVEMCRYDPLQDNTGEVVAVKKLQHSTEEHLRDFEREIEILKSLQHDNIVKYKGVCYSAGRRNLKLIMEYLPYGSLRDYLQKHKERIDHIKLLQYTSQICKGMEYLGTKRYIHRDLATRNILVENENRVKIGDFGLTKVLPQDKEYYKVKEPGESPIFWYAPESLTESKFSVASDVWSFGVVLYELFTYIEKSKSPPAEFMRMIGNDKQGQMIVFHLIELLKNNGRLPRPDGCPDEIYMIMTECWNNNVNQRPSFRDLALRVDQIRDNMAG

TelJak3, sequence (P52333 with tags, fused parts or gaps): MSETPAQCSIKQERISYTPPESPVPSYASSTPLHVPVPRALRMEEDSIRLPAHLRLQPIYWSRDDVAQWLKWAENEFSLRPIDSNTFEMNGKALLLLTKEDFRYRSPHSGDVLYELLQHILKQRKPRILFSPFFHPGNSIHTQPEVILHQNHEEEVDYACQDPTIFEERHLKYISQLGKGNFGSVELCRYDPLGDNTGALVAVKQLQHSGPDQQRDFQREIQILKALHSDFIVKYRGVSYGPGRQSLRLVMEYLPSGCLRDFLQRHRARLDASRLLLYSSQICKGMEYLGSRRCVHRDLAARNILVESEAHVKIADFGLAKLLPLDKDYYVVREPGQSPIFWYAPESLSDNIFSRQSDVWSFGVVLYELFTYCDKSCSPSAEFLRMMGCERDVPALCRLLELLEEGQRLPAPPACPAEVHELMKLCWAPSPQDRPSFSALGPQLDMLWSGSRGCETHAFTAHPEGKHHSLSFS

Compound	pIC50 (TelJak3)	pIC50 [1]	Tubulin (inhibition of tubulin polymerisation) (Tubulin)	pIC50 [2]	pIC50 [3]	pIC50 (TelJak2)
CCC[C@H](Nc1cncc(-c2ccc(N)c(OC)c2)n1)c1ccccc1	≥ 4.70	≥ 4.70	+ (inhibited tubulin polymerisation by greater than 50% at 50 μM)	≥ 4.70	≥ 4.70	≥ 4.70
CCCC(Nc1cncc(-c2cc(C)c(OCCN(CC)CC)c(C)c2)n1)c1ccc(F)cc1 (stereo not drawn)	≥ 4.70	≥ 4.70	+ (inhibited tubulin polymerisation by greater than 50% at 50 μM)	≥ 4.70	≥ 4.70	≥ 4.70
CCCC(Nc1cncc(-c2ccc(O)c(OC)c2)n1)c1ccc(Cl)cc1 (stereo not drawn)	≥ 4.70	≥ 4.70	+ (inhibited tubulin polymerisation by greater than 50% at 50 μM)	≥ 4.70	≥ 4.70	≥ 4.70
CCCC(Nc1cncc(-c2ccc(O)c(OC)c2)n1)c1ccc(C(F)(F)F)cc1 (stereo not drawn)	< 4.70	< 4.70	− (did not inhibit tubulin polymerisation by 50% at 50 μM)	< 4.70	< 4.70	< 4.70
COc1cc(-c2cncc(NC(CCN3CCN(C)CC3)c3ccccc3)n2)ccc1O (stereo not drawn)	≥ 4.70	≥ 4.70	+ (inhibited tubulin polymerisation by greater than 50% at 50 μM)	≥ 4.70	≥ 4.70	≥ 4.70
CCCC(Nc1cncc(-c2ccc(O)c(OC)c2)n1)c1cncc(C)c1 (stereo not drawn)	≥ 4.70	≥ 4.70	+ (inhibited tubulin polymerisation by greater than 50% at 50 μM)	< 4.70	≥ 4.70	≥ 4.70
CCC[C@H](Nc1cncc(-c2ccc(O)c(OC)c2)n1)c1cccnc1	≥ 4.70	≥ 4.70	+ (inhibited tubulin polymerisation by greater than 50% at 50 μM)	≥ 4.70	≥ 4.70	≥ 4.70
CCCC(Nc1cncc(-c2ccc(OC)c(OC)c2)n1)c1ccccc1 (stereo not drawn)	≥ 4.70	≥ 4.70	+ (inhibited tubulin polymerisation by greater than 50% at 50 μM)	≥ 4.70	≥ 4.70	≥ 4.70
CCCC(Nc1cncc(-c2ccc(O)c(OC)c2)n1)c1cccc(C)c1 (stereo not drawn)	≥ 4.70	≥ 4.70	+ (inhibited tubulin polymerisation by greater than 50% at 50 μM)	≥ 4.70	≥ 4.70	≥ 4.70
CCCC(Nc1cncc(-c2ccc(O)c(OC)c2)n1)c1cccc(NC(=O)c2cccnc2)c1 (stereo not drawn)	≥ 4.70	≥ 4.70	+ (inhibited tubulin polymerisation by greater than 50% at 50 μM)	≥ 4.70	≥ 4.70	≥ 4.70
CCCC(Nc1cncc(-c2ccc(O)c(OC(C)C)c2)n1)c1cccnc1 (stereo not drawn)	≥ 4.70	≥ 4.70	+ (inhibited tubulin polymerisation by greater than 50% at 50 μM)	≥ 4.70	≥ 4.70	≥ 4.70
CCCC(Nc1cncc(-c2ccc(O)c(OC)c2)n1)c1ccc(F)cc1 (stereo not drawn)	≥ 4.70	< 4.70	+ (inhibited tubulin polymerisation by greater than 50% at 50 μM)	≥ 4.70	≥ 4.70	≥ 4.70
CCCC(Nc1cncc(-c2ccc(O)c(OC)c2)n1)c1cccc(N)c1 (stereo not drawn)	≥ 4.70	≥ 4.70	+ (inhibited tubulin polymerisation by greater than 50% at 50 μM)	< 4.70	≥ 4.70	≥ 4.70
CCCC(Nc1cncc(-c2ccc(O)c(OC)c2)n1)c1cccc(Cl)c1 (stereo not drawn)	≥ 4.70	≥ 4.70	+ (inhibited tubulin polymerisation by greater than 50% at 50 μM)	≥ 4.70	≥ 4.70	≥ 4.70
CCCC(Nc1cncc(-c2ccc(O)c(OC)c2)n1)c1cc(C)ccc1C (stereo not drawn)	≥ 4.70	≥ 4.70	+ (inhibited tubulin polymerisation by greater than 50% at 50 μM)	≥ 4.70	≥ 4.70	≥ 4.70
